US9809623B2, “α4β7 peptide monomer and dimer antagonists” (Protagonist Therapeutics, Inc., priority 2014, dated 2017)
Numbered stars: 1 amine (or outer) side, 2 acyl side, 3 side chain; on linkers, the order of the positions; unused ones are H or OH. Bridge positions count the residues as written; N and C are the ends. Square brackets hold non-standard residues; d marks the D form. Peptide text beside a SMILES is read from it. I, II: the chains in the order shown. * marks the point of attachment. Phe(3,4-Cl2) = N[C@@H](Cc1ccc(Cl)c(Cl)c1)C(=O)O; Phe(4-tBu) = CC(C)(C)c1ccc(C[C@H](N)C(=O)O)cc1; 1Nal = N[C@@H](Cc1cccc2ccccc12)C(=O)O; 2Nal = N[C@@H](Cc1ccc2ccccc2c1)C(=O)O; d1Nal = N[C@H](Cc1cccc2ccccc12)C(=O)O; Diglycolyl = O=C(COCC(=O)[*:2])[*:1]; NMeR = CN[C@@H](CCCNC(=N)N)C(=O)O; Tic = O=C(O)[C@@H]1Cc2ccccc2CN1; β3hE = N[C@@H](CCC(=O)O)CC(=O)O; Pen = CC(C)(S)[C@H](N)C(=O)O; Isovaleryl = CC(C)CC(=O)*

Each compound was assayed against α4β7 (Homo sapiens, UniProt P13612+P26010) (assay: α4β7-MAdCAM Cell Adhesion Assay (RPMI 8866 human cells)). Conditions: Table 3-B, Potency (α4β7); range classes; read-out: α4β7 cell (Hu) IC50.
Assay type: cell-based
Set-up: host or cells: RPMI 8866 human B lymphoblastoid cells
Procedure, shortened: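 Washed RPMI 8866 cells (200,000/well) in DMEM with 0.1% BSA, 10 mM HEPES pH 7, 1 mM MnCl2 adhered to rh MAdCAM-1/Fc-coated wells with serially diluted peptides, 30-45 min at 37 °C. After three washes, bound cells quantified by MTT, A570, cell-free background subtracted for dose response.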

α4β7, sequence (P13612 34-1032): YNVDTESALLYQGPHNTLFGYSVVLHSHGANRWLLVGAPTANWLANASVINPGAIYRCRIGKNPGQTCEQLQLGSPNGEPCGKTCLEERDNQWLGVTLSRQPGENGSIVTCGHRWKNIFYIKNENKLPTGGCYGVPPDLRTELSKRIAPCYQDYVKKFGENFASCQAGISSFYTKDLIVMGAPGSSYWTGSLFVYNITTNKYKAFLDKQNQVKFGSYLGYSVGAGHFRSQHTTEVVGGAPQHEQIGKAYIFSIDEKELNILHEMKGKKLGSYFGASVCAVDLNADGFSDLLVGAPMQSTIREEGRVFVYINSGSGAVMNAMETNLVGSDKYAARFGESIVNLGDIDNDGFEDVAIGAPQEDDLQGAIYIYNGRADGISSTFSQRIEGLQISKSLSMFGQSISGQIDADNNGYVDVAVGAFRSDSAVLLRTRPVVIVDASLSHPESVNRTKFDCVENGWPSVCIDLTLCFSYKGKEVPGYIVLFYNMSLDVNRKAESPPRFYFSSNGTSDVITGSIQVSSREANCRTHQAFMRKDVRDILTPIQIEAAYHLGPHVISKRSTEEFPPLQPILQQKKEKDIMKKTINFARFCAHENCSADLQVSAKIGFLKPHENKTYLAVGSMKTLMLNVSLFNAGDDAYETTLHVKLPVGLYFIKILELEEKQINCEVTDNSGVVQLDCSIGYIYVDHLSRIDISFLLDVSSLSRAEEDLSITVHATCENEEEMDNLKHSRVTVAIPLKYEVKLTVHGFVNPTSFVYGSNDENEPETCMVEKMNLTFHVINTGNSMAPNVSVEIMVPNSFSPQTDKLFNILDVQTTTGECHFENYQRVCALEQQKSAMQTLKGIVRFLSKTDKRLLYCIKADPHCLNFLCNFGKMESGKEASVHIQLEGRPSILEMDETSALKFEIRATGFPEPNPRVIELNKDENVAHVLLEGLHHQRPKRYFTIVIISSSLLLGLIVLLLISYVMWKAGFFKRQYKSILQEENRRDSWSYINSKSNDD
α4β7, sequence (P26010 20-798): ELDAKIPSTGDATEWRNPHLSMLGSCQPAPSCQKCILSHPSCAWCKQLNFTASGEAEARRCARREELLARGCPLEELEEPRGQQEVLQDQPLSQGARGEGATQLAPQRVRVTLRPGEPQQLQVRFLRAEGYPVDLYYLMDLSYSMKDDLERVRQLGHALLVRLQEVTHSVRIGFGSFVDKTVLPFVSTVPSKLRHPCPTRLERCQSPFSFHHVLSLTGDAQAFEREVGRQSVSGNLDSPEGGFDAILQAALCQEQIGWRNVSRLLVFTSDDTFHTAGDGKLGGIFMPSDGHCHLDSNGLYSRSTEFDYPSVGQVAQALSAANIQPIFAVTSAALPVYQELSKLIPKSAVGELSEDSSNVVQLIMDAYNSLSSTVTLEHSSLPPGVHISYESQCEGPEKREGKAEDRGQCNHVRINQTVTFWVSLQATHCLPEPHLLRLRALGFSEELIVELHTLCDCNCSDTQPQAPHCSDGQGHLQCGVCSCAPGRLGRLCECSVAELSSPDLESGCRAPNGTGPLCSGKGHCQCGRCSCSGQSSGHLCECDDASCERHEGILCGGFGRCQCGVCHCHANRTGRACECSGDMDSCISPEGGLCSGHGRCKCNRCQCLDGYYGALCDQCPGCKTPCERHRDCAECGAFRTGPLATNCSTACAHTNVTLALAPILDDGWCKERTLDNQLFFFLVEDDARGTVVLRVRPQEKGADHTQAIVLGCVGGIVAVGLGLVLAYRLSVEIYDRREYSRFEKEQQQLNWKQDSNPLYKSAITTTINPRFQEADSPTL

SMILES | IC50 [nM]
CC(=O)N[C@@H]1C(=O)N(C)[C@@H](CCCNC(=N)N)C(=O)N[C@@H](CO)C(=O)N[C@@H](CC(=O)O)C(=O)N[C@@H]([C@@H](C)O)C(=O)N[C@@H](CC(C)C)C(=O)N[C@H](C(=O)N[C@@H](Cc2ccc(C(C)(C)C)cc2)C(=O)N[C@H](CCC(=O)O)C(=O)N[C@H](CCCCNC(=O)COCC(=O)NCCCC[C@@H](NC(=O)[C@@H](CCC(=O)O)NC(=O)[C@H](Cc2ccc(C(C)(C)C)cc2)NC(=O)[C@H]2NC(=O)[C@H](CC(C)C)NC(=O)[C@H]([C@@H](C)O)NC(=O)[C@H](CC(=O)O)NC(=O)[C@H](CO)NC(=O)[C@H](CCCNC(=N)N)N(C)C(=O)[C@@H](NC(C)=O)C(C)(C)SSC2(C)C)C(N)=O)C(N)=O)C(C)(C)SSC1(C)C [compound 106] (I: Ac-[Pen][NMeR]SDTL[Pen][Phe(4-tBu)][dE][dK]-NH2 / II: Ac-[Pen][NMeR]SDTL[Pen][Phe(4-tBu)][dE][dK]-NH2; disulfide I:1-I:7, II:1-II:7; linker I:10-II:10 via Diglycolyl) | < 10
CC(=O)N[C@@H]1C(=O)N(C)[C@@H](CCCNC(=N)N)C(=O)N[C@@H](CO)C(=O)N[C@@H](CC(=O)O)C(=O)N[C@@H]([C@@H](C)O)C(=O)N[C@@H](CC(C)C)C(=O)N[C@H](C(=O)N[C@@H](Cc2ccc3ccccc3c2)C(=O)N[C@@H](CCC(=O)O)C(N)=O)C(C)(C)SSC1(C)C [compound 75] (Ac-[Pen][NMeR]SDTL[Pen][2Nal]E-NH2; disulfide 1-7) | 50 to 100
CC(=O)N[C@@H]1C(=O)N(C)[C@@H](CCCNC(=N)N)C(=O)N[C@@H](CO)C(=O)N[C@@H](CC(=O)O)C(=O)N[C@@H]([C@@H](C)O)C(=O)N[C@@H](CC(C)C)C(=O)N[C@H](C(=O)N[C@@H](Cc2c[nH]c3ccccc23)C(=O)N[C@H](CCC(=O)O)C(=O)N[C@H](CCCCNC(=O)CN(CC(=O)NCCCC[C@@H](NC(=O)[C@@H](CCC(=O)O)NC(=O)[C@H](Cc2c[nH]c3ccccc23)NC(=O)[C@H]2NC(=O)[C@H](CC(C)C)NC(=O)[C@H]([C@@H](C)O)NC(=O)[C@H](CC(=O)O)NC(=O)[C@H](CO)NC(=O)[C@H](CCCNC(=N)N)N(C)C(=O)[C@@H](NC(C)=O)C(C)(C)SSC2(C)C)C(N)=O)C(=O)CCNC(=O)CCCCC2SCC3NC(=O)NC32)C(N)=O)C(C)(C)SSC1(C)C (stereo partly drawn) [compound 71] | 25 to 50
CC(=O)N[C@@H]1C(=O)N(C)[C@@H](CCCNC(=N)N)C(=O)N[C@@H](CO)C(=O)N[C@@H](CC(=O)O)C(=O)N[C@@H]([C@@H](C)O)C(=O)N[C@@H](CC(C)C)C(=O)N[C@H](C(=O)N[C@@H](Cc2c[nH]c3ccccc23)C(=O)N[C@H](CCCCNC(=O)COCC(=O)NCCCC[C@@H](NC(=O)[C@H](Cc2c[nH]c3ccccc23)NC(=O)[C@H]2NC(=O)[C@H](CC(C)C)NC(=O)[C@H]([C@@H](C)O)NC(=O)[C@H](CC(=O)O)NC(=O)[C@H](CO)NC(=O)[C@H](CCCNC(=N)N)N(C)C(=O)[C@@H](NC(C)=O)C(C)(C)SSC2(C)C)C(=O)O)C(=O)O)C(C)(C)SSC1(C)C [compound 76] (I: Ac-[Pen][NMeR]SDTL[Pen]W[dK]-OH / II: Ac-[Pen][NMeR]SDTL[Pen]W[dK]-OH; disulfide I:1-I:7, II:1-II:7; linker I:9-II:9 via Diglycolyl) | 10 to 25
CC(=O)N[C@@H]1C(=O)N(C)[C@@H](CCCNC(=N)N)C(=O)N[C@@H](CO)C(=O)N[C@@H](CC(=O)O)C(=O)N[C@@H]([C@@H](C)O)C(=O)N[C@@H](CC(C)C)C(=O)N[C@H](C(=O)N[C@H](Cc2cccc3ccccc23)C(=O)N[C@@H](CCC(=O)O)C(=O)N[C@H](CCCCNC(=O)COCC(=O)NCCCC[C@@H](NC(=O)[C@H](CCC(=O)O)NC(=O)[C@@H](Cc2cccc3ccccc23)NC(=O)[C@H]2NC(=O)[C@H](CC(C)C)NC(=O)[C@H]([C@@H](C)O)NC(=O)[C@H](CC(=O)O)NC(=O)[C@H](CO)NC(=O)[C@H](CCCNC(=N)N)N(C)C(=O)[C@@H](NC(C)=O)C(C)(C)SSC2(C)C)C(N)=O)C(N)=O)C(C)(C)SSC1(C)C [compound 34] (I: Ac-[Pen][NMeR]SDTL[Pen][d1Nal]E[dK]-NH2 / II: Ac-[Pen][NMeR]SDTL[Pen][d1Nal]E[dK]-NH2; disulfide I:1-I:7, II:1-II:7; linker I:10-II:10 via Diglycolyl) | 25 to 50
CC(=O)N[C@@H]1C(=O)N(C)[C@@H](CCCNC(=N)N)C(=O)N[C@@H](CO)C(=O)N[C@@H](CC(=O)O)C(=O)N[C@@H]([C@@H](C)O)C(=O)N[C@@H](CC(C)C)C(=O)N[C@H](C(=O)N[C@@H](Cc2c[nH]c3ccccc23)C(=O)N[C@H](Cc2ccccc2)C(=O)N[C@H](CCCCNC(=O)COCC(=O)NCCCC[C@@H](NC(=O)[C@@H](Cc2ccccc2)NC(=O)[C@H](Cc2c[nH]c3ccccc23)NC(=O)[C@H]2NC(=O)[C@H](CC(C)C)NC(=O)[C@H]([C@@H](C)O)NC(=O)[C@H](CC(=O)O)NC(=O)[C@H](CO)NC(=O)[C@H](CCCNC(=N)N)N(C)C(=O)[C@@H](NC(C)=O)C(C)(C)SSC2(C)C)C(N)=O)C(N)=O)C(C)(C)SSC1(C)C [compound 91] (I: Ac-[Pen][NMeR]SDTL[Pen]W[dF][dK]-NH2 / II: Ac-[Pen][NMeR]SDTL[Pen]W[dF][dK]-NH2; disulfide I:1-I:7, II:1-II:7; linker I:10-II:10 via Diglycolyl) | 100 to 500
CC(=O)N[C@@H]1C(=O)N(C)[C@@H](CCCNC(=N)N)C(=O)N[C@@H](CO)C(=O)N[C@@H](CC(=O)O)C(=O)N[C@@H]([C@@H](C)O)C(=O)N[C@@H](CC(C)C)C(=O)N[C@H](C(=O)N[C@H](Cc2c[nH]c3ccccc23)C(=O)N[C@@H](CCC(=O)O)C(=O)N[C@H](CCCCNC(=O)COCC(=O)NCCCC[C@@H](NC(=O)[C@H](CCC(=O)O)NC(=O)[C@@H](Cc2c[nH]c3ccccc23)NC(=O)[C@H]2NC(=O)[C@H](CC(C)C)NC(=O)[C@H]([C@@H](C)O)NC(=O)[C@H](CC(=O)O)NC(=O)[C@H](CO)NC(=O)[C@H](CCCNC(=N)N)N(C)C(=O)[C@@H](NC(C)=O)C(C)(C)SSC2(C)C)C(N)=O)C(N)=O)C(C)(C)SSC1(C)C [compound 28] (I: Ac-[Pen][NMeR]SDTL[Pen][dW]E[dK]-NH2 / II: Ac-[Pen][NMeR]SDTL[Pen][dW]E[dK]-NH2; disulfide I:1-I:7, II:1-II:7; linker I:10-II:10 via Diglycolyl) | 50 to 100
CC(=O)N[C@@H]1C(=O)N(C)[C@@H](CCCNC(=N)N)C(=O)N[C@@H](CO)C(=O)N[C@@H](CC(=O)O)C(=O)N[C@@H](Cc2ccccc2)C(=O)N[C@@H](CC(C)C)C(=O)N[C@H](C(=O)N[C@@H](Cc2ccc3ccccc3c2)C(=O)N[C@H](CCC(=O)O)C(N)=O)C(C)(C)SSC1(C)C [compound 157] (Ac-[Pen][NMeR]SDFL[Pen][2Nal][dE]-NH2; disulfide 1-7) | 1000 to 10000
CC(=O)N[C@@H]1C(=O)N(C)[C@@H](CCCNC(=N)N)C(=O)N[C@@H](CO)C(=O)N[C@@H](CC(=O)O)C(=O)N[C@@H]([C@@H](C)O)C(=O)N[C@@H](CC(C)C)C(=O)N[C@H](C(=O)N[C@@H](Cc2ccc(Cl)c(Cl)c2)C(=O)N[C@H](CCC(=O)O)C(=O)N[C@H](CCCCNC(=O)COCC(=O)NCCCC[C@@H](NC(=O)[C@@H](CCC(=O)O)NC(=O)[C@H](Cc2ccc(Cl)c(Cl)c2)NC(=O)[C@H]2NC(=O)[C@H](CC(C)C)NC(=O)[C@H]([C@@H](C)O)NC(=O)[C@H](CC(=O)O)NC(=O)[C@H](CO)NC(=O)[C@H](CCCNC(=N)N)N(C)C(=O)[C@@H](NC(C)=O)C(C)(C)SSC2(C)C)C(N)=O)C(N)=O)C(C)(C)SSC1(C)C [compound 102] (I: Ac-[Pen][NMeR]SDTL[Pen][Phe(3,4-Cl2)][dE][dK]-NH2 / II: Ac-[Pen][NMeR]SDTL[Pen][Phe(3,4-Cl2)][dE][dK]-NH2; disulfide I:1-I:7, II:1-II:7; linker I:10-II:10 via Diglycolyl) | 100 to 500
CC(=O)N[C@@H]1C(=O)N(C)[C@@H](CCCNC(=N)N)C(=O)N[C@@H](CO)C(=O)N[C@@H](CC(=O)O)C(=O)N[C@@H]([C@@H](C)O)C(=O)N[C@@H](CC(C)C)C(=O)N[C@H](C(=O)N[C@@H](Cc2cccc3ccccc23)C(=O)N2Cc3ccccc3C[C@H]2C(=O)N[C@H](CCCCNC(=O)COCC(=O)NCCCC[C@@H](NC(=O)[C@@H]2Cc3ccccc3CN2C(=O)[C@H](Cc2cccc3ccccc23)NC(=O)[C@H]2NC(=O)[C@H](CC(C)C)NC(=O)[C@H]([C@@H](C)O)NC(=O)[C@H](CC(=O)O)NC(=O)[C@H](CO)NC(=O)[C@H](CCCNC(=N)N)N(C)C(=O)[C@@H](NC(C)=O)C(C)(C)SSC2(C)C)C(N)=O)C(N)=O)C(C)(C)SSC1(C)C [compound 115] (I: Ac-[Pen][NMeR]SDTL[Pen][1Nal][Tic][dK]-NH2 / II: Ac-[Pen][NMeR]SDTL[Pen][1Nal][Tic][dK]-NH2; disulfide I:1-I:7, II:1-II:7; linker I:10-II:10 via Diglycolyl) | 100 to 500
CC(C)CC(=O)N[C@@H]1C(=O)N(C)[C@@H](CCCNC(=N)N)C(=O)N[C@@H](CO)C(=O)N[C@@H](CC(=O)O)C(=O)N[C@@H]([C@@H](C)O)C(=O)N[C@@H](CC(C)C)C(=O)N[C@H](C(=O)N[C@@H](Cc2ccc(C(C)(C)C)cc2)C(=O)N[C@@H](CCC(=O)O)CC(=O)N[C@H](CCCCN)C(N)=O)C(C)(C)SSC1(C)C [compound 177] (Isovaleryl-[Pen][NMeR]SDTL[Pen][Phe(4-tBu)][β3hE][dK]-NH2; disulfide 1-7) | 50 to 100
CC[C@H](C)[C@@H]1NC(=O)[C@H](CCC(N)=O)NC(=O)[C@H](CO)NC(=O)[C@H](CCCNC(=N)N)N(C)C(=O)[C@@H](NC(C)=O)C(C)(C)SSC(C)(C)[C@@H](C(=O)N[C@@H](Cc2ccc(C(C)(C)C)cc2)C(=O)N[C@@H](CCC(=O)O)CC(=O)N[C@H](CCCCNC(=O)CN(CC(=O)NCCCC[C@@H](NC(=O)C[C@H](CCC(=O)O)NC(=O)[C@H](Cc2ccc(C(C)(C)C)cc2)NC(=O)[C@H]2NC(=O)[C@H](CCC(N)=O)NC(=O)[C@H]([C@@H](C)CC)NC(=O)[C@H](CCC(N)=O)NC(=O)[C@H](CO)NC(=O)[C@H](CCCNC(=N)N)N(C)C(=O)[C@@H](NC(C)=O)C(C)(C)SSC2(C)C)C(N)=O)C(=O)CCN)C(N)=O)NC(=O)[C@H](CCC(N)=O)NC1=O [compound 190] | > 100000
